Where “and” joins values, the source holds several entries; their conditions need not be identical. Identical values can stand only once.

The subject of one experiment is amyloid precursor protein (APP) proteolysis. Description: Repressor Release Assay (RRA). It is filed as cell-based. The settings on record: Conc 3 μg/mL; luciferase activity over diluent control. Here is the method:
The beta amyloid inhibitory activity of many of the compounds of the present invention has been determined using the Repressor Release Assay (RRA). See, Table 23 below. A compound is considered active in RRA if it leads to at least a 1.5 fold increase in luciferase activity at 20 μM and is non-toxic.
The compounds generated as described in Examples 1 through 220 were tested in the RRA in accordance with published techniques [Shuey, D. J., Sheiffele, P., Jones, D., Cockett, M. I., and Quinet, E. M. (1999), “Repressor release: a useful tool for monitoring amyloid precursor protein (APP) proteolysis in mammalian cells”, Society for Neuroscience Abstracts, Vol. 25, 29th Annual Meeting of Society for Neuroscience, Miami Beach, Fla., Oct. 23-28, 1999]. Briefly, this assay is performed as follows.
CHO-K1 cells are cultured in whole DMEM media (DMEM—High Glucose with 10% fetal bovine serum, 1% Non-essential Amino Acids, and 1% Penicillin-Streptomycin) at 37° C. with 5% CO2. Two million cells are plated into 10-cm dishes 24 hrs prior to transfection.
Transient transfections are completed as recommended by Gibco BRL using their Lipofectamine Plus system. First, 6 μg of pRSVO-luc and 6 μg of APP-lacI construct DNA are added to 460 μL Opti-Mem transfection media and incubated with 30 μL Plus reagent for 15 minutes. Then, a lipid mixture of 40 μL Lipofectamine reagent and 460 μL Opti-Mem transfection media is incubated with the DNA-Plus reagent mixture for 15 minutes. During the DNA-lipid incubation, the CHO-K1 cells are washed once and covered in 5.0 mL DMEM media without Penicillin-Streptomycin. The DNA-lipid preparation is then layered onto these cells and incubated at 37° C. overnight.
One and one half million transfected cells per well (100 μL total volume) are plated into sterile, opaque Packard 96-well Cultur-Plates in clear DMEM whole media (DMEM—without phenol red) and incubated at 37° C. with 5% CO2 for 3-5 hours.
Compounds are diluted using two different protocols; one protocol is used for compounds supplied neat (weighed powder in vial) and the other protocol is used for compounds supplied in solution (20 mM in DMSO in 96-well plates). For both protocols, 25 mM Hepes and 25 mM Hepes/1% DMSO are prepared fresh to be used as diluent. The Hepes/DMSO is used as the diluent control on all experimental plates.
The following table depicts the steps for compound dilution (please note that the last step is the addition of compound to cells/media in tissue culture plate):
Because some compounds arrive in 96-well format at 20 mM, the following represents the protocol for their dilution (note that an average molecular weight of these compounds was used to calculate these dilutions and as above, the last step is the addition of compound to cells/media in tissue culture plate):
Once compounds are diluted, they are applied in duplicate on cells in tissue culture plates (prepared above). Cells are incubated with compound at 37° C. with 5% CO2 for an additional 36-48 hours.
Luciferase assays (LucLite reagent, Packard) are performed and are read on a Packard TopCount instrument. Media is removed from each 96-well plate and replaced with 100 μL PBS per well (with Mg^2+ and Ca^2+). An equal volume (100 μL) of the LucLite lysis/substrate buffer is added to each well and the plates are sealed and mixed in the dark on a rotary shaker for 15-30 minutes at room temperature. Luciferase readings are then taken on the TopCount instrument. Measurements are expressed as relative light units (RLU) and are calculated and analyzed in MS Excel as follows.
A compound is considered active in RRA if it leads to at least a 1.5 fold increase in luciferase activity at 20 μM and is non-toxic, as determined by loss of signal (≦0.75 fold increase). Fold increase is the amount of luciferase activity (measured in relative light units) over diluent control. SEM represents the standard error of the mean for fold increase (not shown).
`O=S(=O)(NC1(CO)CCCC1)c1ccc(Br)s1` [Example 109]: the “APPI Fold Increase” value is reported as 1.8 fold.

Staying with this experiment, now noted: Conc 10 μg/mL; luciferase activity over diluent control.
`CCC(C)C(NS(=O)(=O)c1ccc(Cl)s1)C(O)CC(C)C` (mixture of isomers) [Example 126]: the “APPI Fold Increase” value was 5.25 fold and 3.31 fold.

As to `O=S(=O)(N[C@H](CO)CC1CCCCC1)c1ccc(Cl)s1` [Example 95], the “APPI Fold Increase” value is on record as 1.9 fold.

Take `C=C(C)C(O)C(NS(=O)(=O)c1ccc(Cl)s1)C(C)CC` (mixture of isomers) [Example 133]: the “APPI Fold Increase” value was 2.51 fold and 1.68 fold.

As to `O=S(=O)(NC1(CO)CCCC1)c1ccc(Br)s1` [Example 109], the “APPI Fold Increase” value stood at 2 fold.

The experiment is the same for the next values; noted with them: Conc 10 μg/mL; luciferase activity over diluent control; read-out: APPI Fold Increase.
Regarding `CC[C@H](C)[C@H](NS(=O)(=O)c1cccs1)C(O)c1ccc(SC)cc1` (stereo partly drawn) [Example 153, N-((S,S)-1-{hydroxy[4-(methylthio)phenyl]methyl}-2-methylbutyl)thiophene-2-sulfonamide], the fold induction at 10 µg/mL turned out to be 2.09.

Staying with this experiment, now noted: Conc 20 μg/mL; luciferase activity over diluent control.
Turning to “5-bromo-N-{(S,S)-2-hydroxy-1-[(S)-1-methylpropyl]pent-4-enyl}thiophene-2-sulfonamide [Example 194]”, the “APPI Fold Increase” value was 9 fold and 5.3 fold.

The experiment is the same for the next values; noted with them: Conc 20 μg/mL; luciferase activity over diluent control; read-out: APPI Fold Increase.
On to `CCC[C@H](c1ccc(OC)cc1)[C@@H](CO)NS(=O)(=O)c1ccc(Cl)s1` [Example 36, 5-chloro-N-[(1S,2R)-1-(hydroxymethyl)-2-(4-methoxyphenyl)pentyl]thiophene-2-sulfonamide], for which the fold induction at 20 µg/mL stood at 3.8.

Regarding `CCCC(CCC)[C@@H](CO)NS(=O)(=O)c1ccc(Cl)s1` [Example 40, 5-chloro-N-[(1S)-2-propyl-1-(hydroxymethyl)pentyl]thiophene-2-sulfonamide], the fold induction at 20 µg/mL is 3.9.

Turning to `CC[C@@H](c1ccco1)[C@@H](CO)NS(=O)(=O)c1ccc(Cl)s1` [Example 49, 5-chloro-N-[(1S,2R)-2-(2-furyl)-1-(hydroxymethyl)butyl]thiophene-2-sulfonamide], the fold induction at 20 µg/mL was 6.1.

On to `O=[N+]([O-])c1ccc([C@@H](O)[C@@H](CO)NS(=O)(=O)c2ccc(Cl)s2)cc1` [Example 99, 5-chloro-N-[(R,R)-2-hydroxy-1-(hydroxymethyl)-2-(4-nitrophenyl)ethyl]thiophene-2-sulfonamide], for which the fold induction at 20 µg/mL came to 1.5.

Take `O=S(=O)(N[C@H](CO)CSCc1ccccc1)c1ccc(Cl)s1` [Example 101, N-[R-2-(benzylthio)-1-(hydroxymethyl)ethyl]-5-chlorothiophene-2-sulfonamide]: the fold induction at 20 µg/mL was found to be 2.7.

Consider `CNC1CCC([C@@H](CO)NS(=O)(=O)c2ccc(Cl)s2)CC1` (stereo partly drawn) [Example 212, 5-chloro-N-[(S)-2-hydroxy-1-(4-methylaminocyclohexyl)ethyl]thiophene-2-sulfonamide], for which the fold induction at 20 µg/mL stood at 1.7.

Regarding `CC[C@H](CC(C)C)[C@@H](CO)NS(=O)(=O)c1ccc(Br)s1` [Example 59, 5-bromo-N-[(1S,2R)-2-ethyl-1-(hydroxymethyl)-4-methylpentyl]thiophene-2-sulfonamide], the fold induction at 20 µg/mL came to 4.5.

Turning to `CC[C@H](CC(C)C)[C@@H](CO)NS(=O)(=O)c1ccc(Cl)s1` [Example 31, 5-chloro-N-[(1S,2R)-2-ethyl-1-(hydroxymethyl)-4-methylpentyl]thiophene-2-sulfonamide], the fold induction at 20 µg/mL is 4.4.

In the case of `CCCCCC[C@H](CC)[C@@H](CO)NS(=O)(=O)c1ccc(Br)s1` [Example 78B, 5-bromo-N-[(1S,2S)-2-ethyl-1-(hydroxymethyl)octyl]thiophene-2-sulfonamide], the fold induction at 20 µg/mL was 23.

On to `O=S(=O)(NC1(CO)CCCCC1)c1ccc(Br)s1` [Example 181, 5-bromo-N-[1-(hydroxymethyl)cyclohexyl]thiophene-2-sulfonamide], for which the fold induction at 20 µg/mL is 2.6.

As to `CCCCC[C@H](c1ccc(OC)cc1)[C@@H](CO)NS(=O)(=O)c1ccc(Cl)s1` [Example 43, 5-chloro-N-[(1S,2R)-1-(hydroxymethyl)-2-(4-methoxyphenyl)heptyl]thiophene-2-sulfonamide], the fold induction at 20 µg/mL was 1.7.

On to `CCCCCC[C@@H](C)[C@@H](CO)NS(=O)(=O)c1ccc(Cl)s1` [Example 29, 5-chloro-N-[(1S,2R)-1-(hydroxymethyl)-2-methyloctyl]thiophene-2-sulfonamide], for which the fold induction at 20 µg/mL turned out to be 2.6.

As to `CCCCCC[C@@H](CC)[C@@H](CO)NS(=O)(=O)c1ccc(Br)s1` [Example 78A, 5-bromo-N-[(1S,2R)-2-ethyl-1-(hydroxymethyl)octyl]thiophene-2-sulfonamide], the fold induction at 20 µg/mL was determined as 5.8.

Take `CSCC[C@@H](CO)NS(=O)(=O)c1ccc(Br)s1` [Example 111, 5-bromo-N-[(S)-1-(hydroxymethyl)-3-(methylthio)propyl]thiophene-2-sulfonamide]: the fold induction at 20 µg/mL turned out to be 1.8.

Regarding `C[C@@H](c1ccccc1)[C@@H](CO)NS(=O)(=O)c1ccc(Br)s1` [Example 66, 5-bromo-N-[(1S,2S)-1-(hydroxymethyl)-2-phenylpropyl]thiophene-2-sulfonamide], the fold induction at 20 µg/mL turned out to be 5.3.

In the case of `CC[C@@H](c1ccccc1)[C@@H](CO)NS(=O)(=O)c1ccc(Br)s1` [Example 67, 5-bromo-N-[(1S,2S)-1-(hydroxymethyl)-2-phenylbutyl]thiophene-2-sulfonamide], the fold induction at 20 µg/mL worked out at 4.7.

On to `CC[C@@H](c1ccc(-c2ccccc2)cc1)[C@@H](CO)NS(=O)(=O)c1ccc(Br)s1` [Example 76, N-[(1S,2S)-2-[1,1′-biphenyl]-4-yl-1-(hydroxymethyl)butyl]-5-bromothiophene-2-sulfonamide], for which the fold induction at 20 µg/mL stood at 3.2.

For the compound `CCC(CO)(CO)NS(=O)(=O)c1ccc(Br)s1` [Example 108, N-[1,1-bis(hydroxymethyl)propyl]-5-bromothiophene-2-sulfonamide], the fold induction at 20 µg/mL was 2.

Consider `CC(C)C[C@@H](c1ccc(-c2ccccc2)cc1)[C@@H](CO)NS(=O)(=O)c1ccc(Cl)s1` [Example 55, N-[(1S,2S)-2-[1,1'-biphenyl]-4-yl-1-(hydroxymethyl)-4-methylpentyl]-5-chlorothiophene-2-sulfonamide], for which the fold induction at 20 µg/mL is 1.9.

For the compound `CCCCCC[C@@H](C)[C@@H](CO)NS(=O)(=O)c1ccc(Br)s1` [Example 57, 5-bromo-N-[(1S,2R)-1-(hydroxymethyl)-2-methyloctyl]thiophene-2-sulfonamide], the fold induction at 20 µg/mL amounted to 6.4.

For the compound `CC[C@H](C)[C@@H](CO)N(Cc1cccc(Cl)c1)S(=O)(=O)c1ccc(Cl)s1` [Example 88, 5-chloro-N-(3-chlorobenzyl)-N-[(1S,2S)-1-(hydroxymethyl)-2-methylbutyl]thiophene-2-sulfonamide], the fold induction at 20 µg/mL is 4.9.

Turning to `COC1CCC([C@@H](CO)NS(=O)(=O)c2ccc(Cl)s2)CC1` (stereo partly drawn) [Example 199, 5-Chloro-N-[(S)-2-hydroxy-1-(4-methoxycyclohexyl)ethyl]thiophene-2-sulfonamide], the fold induction at 20 µg/mL was 2.8.

Staying with this experiment, now noted: read-out: APPI Fold Increase.
Regarding `CCCCC(CC)C(CO)NS(=O)(=O)c1ccc(Cl)s1` (stereo not shown) [Example 21, 5-chloro-N-[2-ethyl-1-(hydroxymethyl)hexyl]thiophene-2-sulfonamide], the fold induction at 20 µg/mL was found to be 3.3.

As for `O=S(=O)(NC(CO)C1CCCC1)c1ccc(Cl)s1` (stereo not shown) [Example 24, 5-chloro-N-(1-cyclopentyl-2-hydroxyethyl)thiophene-2-sulfonamide], the fold induction at 20 µg/mL worked out at 6.

For the origin of these results see US6878742B2, “Heterocyclic sulfonamide inhibitors of beta amyloid production” (Wyeth, priority 2000, dated 2005).
